The values below come from the NIST ThermoML archive (doi:10.1016/j.jct.2008.03.008).

± gives the expanded uncertainty stated by the source.

The nature of this data set: molar enthalpy of vaporization or sublimation. The conditions noted are these: 298.15 K, Liquid.

For `CC(=O)c1cc(C)cs1` [2-acetyl-4-methylthiophene], the molar enthalpy (Flow calorimetry) turned out to be 63 ± 5.2 kJ/mol.

Regarding `CC(=O)c1ccc(C)s1` [2-acetyl-5-methylthiophene], the molar enthalpy (Flow calorimetry) worked out at 62 ± 5.2 kJ/mol.

Consider `CC(=O)c1sccc1C` [2-acetyl-3-methylthiophene], for which the molar enthalpy (Vacuum sublimation drop method) was 57.1 ± 4.8 kJ/mol.
